Test results taken from patent US20010046992A1, “Treatment of urinary tract infections with antibacterial oxazolidinones” (priority 2000, published 2001).

Experiment: loss of linezolid in IV solution during and following terminal moist heat sterilization in the container
Type: physicochemical
Conditions: container-solution contact surface made of at least 50% polyolefin
From the text: It is well known to those skilled in the art that pharmaceutical agents administered IV must be sterile. While there are a number of methods to sterilize an IV solution, it is preferred to terminally moist heat or steam sterilize IV solutions of antibacterial oxazolidinones including those of linezolid. When the term terminally “moist heat sterilize” is used, it refers to and includes steam sterilization.
When terminally moist heat sterilizing an IV solution, the solution is placed in the container in which (1) it will be stored and then transferred to the container from which it will ultimately be administered, or (2) stored and then ultimately administered from the same container to deliver the IV solution to the patient. Therefore, it is imperative that the pharmaceutically active ingredient (oxazolidinone, linezolid) not react with the container in which it is to be terminally moist heat sterilized and stored/stored-administered.
What is essential is that the container-solution contact surface material be primarily a polyolefin; the remainder of the container can be made from polyolefin or other materials. It is preferred that the container-solution contact surface is made of from about 50 to about 100% polyolefin. It is more preferred that the container-solution contact surface is made of from about 70 to about 90% polyolefin. […]

**Q.** Which “loss of linezolid during and following terminal moist heat sterilization” value does the source give for `CC(=O)NC[C@H]1CN(c2ccc(N3CCOCC3)c(F)c2)C(=O)O1` [linezolid, (S)-N-[[3-[3-fluoro-4-(4-morpholinyl)phenyl]-2-oxo-5-oxazolidinyl]methyl]acetamide] here?
**A.** significantly much less loss
